In patent US11912707B2 (priority 2016, dated 2024):
Read-outs that look alike come from different tables or passages of the source.

Experiments:
MOR [1] = details: Takayama 2002; Matsumoto 2004; cited from earlier work
[2] = molecular target: T1, human delta-opioid receptor (DOR) (Homo sapiens, UniProt P41143); test: BRET assay measuring G protein activation, antagonist competition vs DPDPE, human DOR; type: cell-based; details: for Extent of antagonism at Human DOR: competing agonist DPDPE (50 nM)
T1 construct: expressed in transfected cells; host or cells: HEK-293T
Procedure: (§1) Human MOR, KOR, or DOR cDNA was transfected alongside GαoB with RLuc8 inserted at position 91 (GαoB-RLuc8), Gβ1 (β1), and Gγ2 fused to the full-length mVenus at its N terminus (mVenus-γ2) (2.5 μg MOR/DOR/KOR, 0.125 μg GαoB-RLuc8, 6.25 μg β1; 6.25 μg mVenus-γ2) into HEK-293T cells (5×10^6 cells/plate) in 10-cm dishes using PEI (Polysciences Inc.; Warrington, PA) in a 1:1 ratio diluted in Opti-MEM (Life Technologies Corp.; Grand Island, NY) to assay for G protein activation as described previously.^2,3 Cells were maintained in Dulbecco's Modified Eagle Medium (high glucose #11965; Life Technologies) supplemented with 10% FBS (Premium Select, Atlanta Biologicals; Atlanta, GA) and 100 U/mL penicillin and 100 μg/mL streptomycin (#15140, Life Technologies). After 24 hours the media was changed, and the experiment was performed 24 hours later (48 hours after transfection).
(§2) Transfected cells were dissociated and resuspended in phosphate-buffered saline (PBS). Approximately 200,000 cells/well were added to a black-framed, white well 96-well plate (#60050; Perkin Elmer; Waltham, MA). The microplate was centrifuged and the cells were resuspended in phosphate-buffered saline (PBS). For agonist experiments, after 5 minutes, 5 μM of the luciferase substrate coelenterazine H was added to each well. After 5 minutes, ligands were added and the BRET signal was measured at 5 minutes on a PHERAstar FS plate reader. For antagonist competition experiments, cells were preincubated with the antagonist at varying concentrations for 30 minutes. Coelenterazine H (5 μM) was then added to each well for 5 minutes. […] The BRET signal was quantified by calculating the ratio of the light emitted by the energy acceptor, mVenus (510-540 nm), over the light emitted by the energy donor, RLuc8 (485 nm). This drug-induced BRET signal was normalized using the Emax of [D-Ala2, N-Me-Phe4, Gly5-ol]-enkephalin (DAMGO), U-50,488, or [D-Pen(2,5)]enkephalin (DPDPE) as the maximal response at MOR, KOR, and DOR respectively. Dose response curves were fit using a three-parameter logistic equation in GraphPad Prism 6.

[3] = molecular target: T2, human mu-opioid receptor (MOR) (Homo sapiens, UniProt P35372); test: BRET assay measuring G protein activation, agonist mode, human MOR; type: cell-based
T2 construct: expressed in transfected cells; host or cells: HEK-293T
Procedure: as §1, §2

[4] = Stability in human liver microsomes; type: in vitro ADME; details: pH 7.4, 2 μM test compound, 0.42 mg/mL microsomal protein, 37° C., NADPH, read-out: t1/2 in human liver microsomes
Procedure: Microsomal incubations were carried out in 96-well plates in 5 aliquots of 40 μL each (one for each time point). Liver microsomal incubation medium contained PBS (100 mM, pH 7.4), MgCl2 (3.3 mM), NADPH (3 mM), glucose-6 phosphate (5.3 mM), and glucose-6-phosphate dehydrogenase (0.67 units/ml) with 0.42 mg of liver microsomal protein per mL. Control incubations were performed replacing the NADPH-cofactor system with PBS. Test compound (2 μM, final solvent concentration 1.6%) was incubated with microsomes at 37° C., shaking at 100 rpm. Incubations were performed in duplicates. Five time points over 40 minutes were analyzed. The reactions were stopped by adding 12 volumes of 90% acetonitrile-water to incubation aliquots, followed by protein sedimentation by centrifuging at 5500 rpm for 3 minutes. Supernatants were analyzed for remaining test compound using an HPLC system coupled with a tandem mass spectrometer.

MOR [5] = molecular target: MOR (Homo sapiens, UniProt P35372); details: Kruegel, A. C. et al. 2016; cited from earlier work
[6] = molecular target: T2, human mu-opioid receptor (MOR); details: Kruegel, A. C. et al. 2016; cited from earlier work
[7] = molecular target: T3, human kappa-opioid receptor (KOR) (Homo sapiens, UniProt P41145); test: BRET assay measuring G protein activation, antagonist competition vs U-50,488, human KOR; type: cell-based; details: for Inhibition of the agonist activity of U-50,488 at human KOR: concentration of agonist = 320 nM, FIG. 1
T3 construct: expressed in transfected cells; host or cells: HEK-293T
Procedure: as §1, §2

[8] = molecular target: T3, human kappa-opioid receptor (KOR); details: Kruegel, A. C. et al. 2016; cited from earlier work
[9] = read-out: Antagonist IC50, Human DOR
[10] = inhibition of reference agonist U-50,488 at 5x its EC50 (320 nM), read-out: Antagonist IC50, Human KOR

Row | SMILES | IC50 [2] [µM] | Emax ([3]; normalized to Emax of DAMGO) [%] | half-life at 2 μM [4] [h] | beta-arrestin recruitment at MOR (MOR [5]) | Type of activity at MOR [6] | IC50 [7] [µM] | Inhibition of the agonist activity of U-50,488 at human KOR [7] | Type of activity at KOR [8] | other results
1 | CC[C@@H]1CN2CC[C@@]3(O)C(=Nc4cccc(OC)c43)[C@@H]2C[C@@H]1/C(=C\OC)C(=O)OC [7-hydroxymitragynine, 7-Hydroxymitragynine] | 15.6 | 60 | 4.38 | failing to recruit beta-arrestin | partial MOR agonists | 7.9 | fully inhibit | competitive kappa-opioid receptor (KOR) antagonists | binding affinities for the MOR (MOR [1]): nanomolar; Ki [7]: 0.49 µM
2 | CC[C@@H]1CN2CC[C@@]3(O)C(=Nc4cccc(OC)c43)[C@@H]2C[C@@H]1/C(=C/OC)C(=O)OC [(Z)-7-hydroxymitragynine, methyl (Z)-2-((2S,3S,7aS,12bS)-3-ethyl-7a-hydroxy-8-methoxy-1,2,3,4,6,7,7a,12b-octahydroindolo[2,3-a]quinolizin-2-yl)-3-methoxyacrylate] | > 50 | 64 |  |  |  | > 50 |  |  | 
3 | CC[C@@H]1CN2CCc3c([nH]c4cccc(OC)c34)[C@@H]2C[C@@H]1/C(=C/OC)C(=O)OC [(Z)-mitragynine, methyl (Z)-2-((2S,3S,12bS)-3-ethyl-8-methoxy-1,2,3,4,6,7,12,12b-octahydroindolo[2,3-a]quinolizin-2-yl)-3-methoxyacrylate] |  |  |  |  |  |  |  |  | Extent of antagonism at Human DOR [2]: partial; IC50 [2, 9]: > 100 µM; IC50 [7, 10]: 42 µM
4 | [2H]C([2H])([2H])O/C=C(/C(=O)OC([2H])([2H])[2H])[C@H]1C[C@H]2c3[nH]c4cccc(OC([2H])([2H])[2H])c4c3CCN2C[C@H]1CC [Compound 18, Methyl-d3 (E)-2-((2S,3S,12bS)-3-ethyl-8-(methoxy-d3)-1,2,3,4,6,7,12,12b-octahydroindolo[2,3-a]quinolizin-2-yl)-3-(methoxy-d3)acrylate] |  |  | 0.585 |  |  |  |  |  | 
5 | [2H]CO/C=C(/C(=O)OC([2H])([2H])[2H])[C@H]1C[C@H]2C3=Nc4cccc(OC([2H])([2H])[2H])c4[C@@]3(O)CCN2C[C@H]1CC [Compound 19, Methyl-d3 (E)-2-((2S,3S,7aS,12bS)-3-ethyl-7a-hydroxy-8-(methoxy-d3)-1,2,3,4,6,7,7a,12b-octahydroindolo[2,3-a]quinolizin-2-yl)-3-(methoxy-d)acrylate] |  |  | 6.57 |  |  |  |  |  | 
6 | CC[C@@H]1CN2CC[C@]3(Nc4cccc(OC)c4C3=O)[C@@H]2C[C@@H]1/C(=C\OC)C(=O)OC [mitragynine pseudoindoxyl, methyl (E)-2-((2S,6′S,7′S,8a′S)-6′-ethyl-4-methoxy-3-oxo-2′,3′,6′,7′,8′,8a′-hexahydro-5′H-spiro[indoline-2,1′-indolizin]-7′-yl)-3-methoxyacrylate] | 0.609 | 52 |  | failing to recruit beta-arrestin | partial MOR agonists | 4.8 | fully inhibit | competitive kappa-opioid receptor (KOR) antagonists | EC50 [3]: 0.0145 µM
7 | CC[C@@H]1CN2CCc3c([nH]c4cccc(OC)c34)[C@@H]2C[C@@H]1/C(=C\OC)C(=O)OC [mitragynine, Mitragynine] |  |  | 0.447 | failing to recruit beta-arrestin | partial MOR agonists |  | fully inhibit | competitive kappa-opioid receptor (KOR) antagonists | binding affinities for the MOR (MOR [1]): nanomolar; Extent of antagonism at Human DOR [2]: partial; IC50 [2, 9]: > 50 µM; Emax, Human MOR ([3]; normalized to Emax of DAMGO): 34%; Ki ([7]; Schild analysis, read-out: Schild pA2 (an estimate of Ki), Human KOR (converted)): 1.4 µM; IC50 [7, 10]: 8.5 µM
